One may read the EC50 as the concentration needed to bring the measured effect to its halfway point. A low value points to higher potency in that assay. Broadly, the IC50 is the concentration at which inhibition is half-maximal. Low values mean greater potency in that assay, high ones weaker potency in that assay. Usually clearance stands for the volume of plasma or blood freed of the substance per unit of time. The low end stands for inefficient removal, the high end for efficient removal. What is called Vd is the apparent volume that relates the amount in the body to the concentration in plasma or blood. The term half-life denotes the time needed for the level to fall by half in the phase considered. A low value points to fast loss.

Here are results for 2 compounds from ChEMBL document CHEMBL1148661, “SAR studies: designing potent and selective LXR agonists” (Bioorg Med Chem Lett, 2006).

The structures appear in SMILES notation.

The target of data set [1] is T1, Oxysterols receptor LXR-alpha (Homo sapiens, UniProt Q13133).
T1 sequence (Q13133 whole entry): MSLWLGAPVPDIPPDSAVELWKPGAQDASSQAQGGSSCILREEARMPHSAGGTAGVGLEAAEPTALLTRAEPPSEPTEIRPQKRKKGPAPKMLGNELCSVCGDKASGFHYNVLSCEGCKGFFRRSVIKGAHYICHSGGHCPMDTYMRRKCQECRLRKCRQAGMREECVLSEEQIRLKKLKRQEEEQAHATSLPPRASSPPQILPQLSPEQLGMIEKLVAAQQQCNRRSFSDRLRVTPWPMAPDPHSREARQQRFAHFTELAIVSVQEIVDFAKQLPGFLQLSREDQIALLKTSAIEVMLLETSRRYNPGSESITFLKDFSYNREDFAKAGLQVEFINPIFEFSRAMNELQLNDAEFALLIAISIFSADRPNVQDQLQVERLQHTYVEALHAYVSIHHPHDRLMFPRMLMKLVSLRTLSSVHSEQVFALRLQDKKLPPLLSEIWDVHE
It is filed as functional, cell-based, CHO.

In data set [2] the target is T2, Oxysterols receptor LXR-beta (Homo sapiens, UniProt P55055).
T2 sequence (P55055 whole entry): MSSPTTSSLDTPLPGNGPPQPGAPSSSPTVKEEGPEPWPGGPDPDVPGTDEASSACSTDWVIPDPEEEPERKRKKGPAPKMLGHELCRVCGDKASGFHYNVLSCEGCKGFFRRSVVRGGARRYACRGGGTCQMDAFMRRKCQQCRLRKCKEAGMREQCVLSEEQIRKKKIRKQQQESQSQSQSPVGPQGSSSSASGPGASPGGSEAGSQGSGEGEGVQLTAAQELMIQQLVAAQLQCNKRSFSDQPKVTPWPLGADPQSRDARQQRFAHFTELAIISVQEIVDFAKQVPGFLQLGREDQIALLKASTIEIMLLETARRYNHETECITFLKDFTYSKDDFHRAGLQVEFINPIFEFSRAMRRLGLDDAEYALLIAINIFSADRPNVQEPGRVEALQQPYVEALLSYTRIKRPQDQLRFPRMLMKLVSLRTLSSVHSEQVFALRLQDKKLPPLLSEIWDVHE
It is filed as functional, cell-based, CHO.

For data set [3], the target named is T3, Peroxisome proliferator-activated receptor alpha (Homo sapiens, UniProt Q07869).
T3 sequence (Q07869 whole entry): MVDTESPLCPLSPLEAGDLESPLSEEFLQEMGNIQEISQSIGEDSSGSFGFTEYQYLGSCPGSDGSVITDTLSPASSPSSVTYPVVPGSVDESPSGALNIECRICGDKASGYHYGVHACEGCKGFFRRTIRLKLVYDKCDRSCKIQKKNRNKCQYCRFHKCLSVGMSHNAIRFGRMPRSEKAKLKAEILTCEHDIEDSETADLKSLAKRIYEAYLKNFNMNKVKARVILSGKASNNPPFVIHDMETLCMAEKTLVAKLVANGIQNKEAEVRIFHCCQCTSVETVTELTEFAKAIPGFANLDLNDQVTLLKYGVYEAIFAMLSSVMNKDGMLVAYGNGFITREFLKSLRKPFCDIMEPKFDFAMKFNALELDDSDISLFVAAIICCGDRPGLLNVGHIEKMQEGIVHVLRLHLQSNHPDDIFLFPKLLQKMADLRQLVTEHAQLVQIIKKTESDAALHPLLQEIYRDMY

The target in data set [4] is T1, Oxysterols receptor LXR-alpha.
In data set [5] the target is T2, Oxysterols receptor LXR-beta.
The species entered for a further data set is Mus musculus. The conditions noted are these: in vivo.
Data set [6] can be described thus: in vivo. The conditions noted are these: mouse, iv, 0.5 mg/kg.
Data set [7] in a line: in vivo. The conditions noted are these: mouse, iv, 0.5 mg/kg. The source holds these as a separate data set.
A short description of data set [8]: in vivo. The conditions noted are these: mouse.
Data set [9] concerns the target T4, Nuclear receptor subfamily 1 group I member 2 (Homo sapiens, UniProt O75469).
T4 sequence (O75469 whole entry): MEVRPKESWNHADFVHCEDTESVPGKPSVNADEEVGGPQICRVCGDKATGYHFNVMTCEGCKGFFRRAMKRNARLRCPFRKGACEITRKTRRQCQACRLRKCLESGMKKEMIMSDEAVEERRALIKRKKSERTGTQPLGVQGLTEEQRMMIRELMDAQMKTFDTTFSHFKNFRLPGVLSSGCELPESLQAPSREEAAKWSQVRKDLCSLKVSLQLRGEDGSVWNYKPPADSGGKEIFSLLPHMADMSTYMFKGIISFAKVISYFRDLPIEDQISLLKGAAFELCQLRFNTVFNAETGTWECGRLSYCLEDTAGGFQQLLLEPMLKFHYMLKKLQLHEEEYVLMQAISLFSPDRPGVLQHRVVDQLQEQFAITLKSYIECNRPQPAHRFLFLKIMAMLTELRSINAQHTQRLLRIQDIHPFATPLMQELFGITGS

In the case of `CCCc1c(OCCCn2ccc3cc(CC(=O)O)ccc32)ccc2c(C(F)(F)F)noc12`, the figures for the EC50 in data set [1] and in data set [2] were 0.59 µM and 0.45 µM, respectively. Also, the figures for the IC50 in [3], in [4] and in data set [5] were 0.4 µM, 0.016 µM and 0.016 µM, respectively. In addition, the AUC in the data set filed under Mus musculus is 2.7 µM·kg·h/mg. For the same compound, the clearance in the data set “in vivo [6]” came to 18 mL/min/kg. The Vd in the data set “in vivo [7]” is 2.7 L/kg. In the data set “in vivo [8]”, the half-life was 3.9 h.
Turning to `CCCc1c(OCCCN2C(=O)Cc3cc(CC(=O)O)ccc32)ccc2c(C(F)(F)F)noc12`, the EC50 in data set [1] was determined as 0.18 µM; in data set [2], 0.14 µM. Further, the IC50 is 0.019 µM in data set [4], 0.013 µM in [5] and more than 10 µM in data set [9]. In the data set listed under Mus musculus, this compound gave an AUC of 1 µM·kg·h/mg. The compound also registered a clearance in the data set “in vivo [6]” of 46 mL/min/kg. The compound further displayed a Vd in the data set “in vivo [7]” of 2.9 L/kg. In “in vivo [8]”, this compound had a half-life of 1 h.
